Target: T1, EGFR (HCC827 cells) (Homo sapiens, UniProt P00533, DEL746-750)
T1 construct: endogenous in cells; host or cells: HCC827
Test: EGFR degradation HTRF assay, HCC827 cells
Assay type: cell-based
Conditions: HCC827, 16h treatment; for Dmax: maximum percentage of degradation
Protocol: BaF3 WT(wild type), BaF3-LTC(L858R/T790M/C797S) and BaF3-DTC(Del19/T790M/C797S) cells are treated with compounds diluted in 0.2% DMSO cell culture medium and incubate for 16h, 37° C., 5% CO2, H1975-#36, H1975-#28, H1975-#23 and HCC827 cells are treated with compounds diluted in 0.2% DMSO cell culture medium on day 2, incubate for 16h, 37° C., 5% CO2.the final concentriation of compounds in all assay is start with 10 uM, 5-fold dilution, total 8 doses were included.
After 16h treatment, add HTRF lysis buffer to each well; seal the plate and incubate 1 hour at room temperature on a plate shaker; Once the cells are lysed, 16 μL of cell lysate are transferred to a PE 384-well HTRF detection plate; 4 μL of pre-mixed HTRF antibodies are added to each well; Cover the plate with a plate sealer, spin 1000 rpm for 1 min, Incubate overnight at room temperature; Read on BMG PheraStar with HTRF protocol (337 nm-665 nm-620 nm).
The inhibition (degradation) percentage of the compound was calculated by the following equation: Inhibition percentage of Compound=100-100×(Signal-low control)/(High control-low control), wherein signal=each test compound group
High control=Cell group with added DMSO and without compound, indicating microplate readings without EGFR degradation;
Dmax is the maximum percentage of inhibition (degradation).
The IC50 (DC50) value of a compound can be obtained by fitting the following equation
Y=Bottom+(TOP−Bottom)/(1+((IC50/X)^hillslope))
Wherein, X and Y are known values, and IC50, Hillslope, Top and Bottom are the parameters obtained by fitting with software. Y is the inhibition percentage (calculated from the equation), X is the concentration of the compound; IC50 is the concentration of the compound when the 50% inhibition is reached. The smaller the IC50 value is, the stronger the inhibitory ability of the compound is. Vice versa, the higher the IC50 value is, the weaker the inhibitory ability of the compound is; Hillslope represents the slope of the fitted curve, generally around 1*; Bottom represents the minimum value of the curve obtained by data fitting, which is generally 0%±20%; Top represents the maximum value of the curve obtained by data fitting, which is generally 100%±20%. The experimental data were fitted by calculating and analyzing with Dotmatics data analysis software.

T1 sequence (P00533 with tags, fused parts or gaps DEL746-750): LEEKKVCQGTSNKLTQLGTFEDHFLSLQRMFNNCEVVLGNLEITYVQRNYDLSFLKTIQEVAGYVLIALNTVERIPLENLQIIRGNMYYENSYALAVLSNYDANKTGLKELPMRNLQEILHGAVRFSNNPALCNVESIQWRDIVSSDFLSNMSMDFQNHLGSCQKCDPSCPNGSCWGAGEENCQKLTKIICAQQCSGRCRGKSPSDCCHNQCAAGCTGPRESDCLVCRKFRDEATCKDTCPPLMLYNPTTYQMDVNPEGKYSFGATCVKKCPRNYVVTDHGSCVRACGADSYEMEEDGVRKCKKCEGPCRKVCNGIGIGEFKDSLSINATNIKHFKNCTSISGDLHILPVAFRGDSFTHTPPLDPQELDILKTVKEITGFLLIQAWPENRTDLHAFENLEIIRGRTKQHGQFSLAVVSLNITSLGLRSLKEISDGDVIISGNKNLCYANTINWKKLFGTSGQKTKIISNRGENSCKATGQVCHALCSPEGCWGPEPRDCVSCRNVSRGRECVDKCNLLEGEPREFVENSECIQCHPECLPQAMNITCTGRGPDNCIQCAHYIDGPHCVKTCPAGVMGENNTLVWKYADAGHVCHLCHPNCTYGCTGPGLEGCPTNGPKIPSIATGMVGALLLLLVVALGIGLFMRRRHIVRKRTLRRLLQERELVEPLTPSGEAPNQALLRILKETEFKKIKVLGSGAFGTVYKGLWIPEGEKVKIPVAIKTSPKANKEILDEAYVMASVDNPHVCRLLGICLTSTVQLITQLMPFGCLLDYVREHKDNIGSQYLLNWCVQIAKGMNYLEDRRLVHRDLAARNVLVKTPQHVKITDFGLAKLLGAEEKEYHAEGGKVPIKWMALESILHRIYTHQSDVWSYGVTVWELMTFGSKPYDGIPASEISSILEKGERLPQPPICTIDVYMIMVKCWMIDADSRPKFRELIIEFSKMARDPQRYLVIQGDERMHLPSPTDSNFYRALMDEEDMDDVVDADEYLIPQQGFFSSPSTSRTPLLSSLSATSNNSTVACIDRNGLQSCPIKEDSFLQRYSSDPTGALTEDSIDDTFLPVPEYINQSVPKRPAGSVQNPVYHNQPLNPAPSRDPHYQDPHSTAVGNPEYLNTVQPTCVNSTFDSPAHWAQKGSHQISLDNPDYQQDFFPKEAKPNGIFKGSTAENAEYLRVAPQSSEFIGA

COc1cc(N2CCC(N3CCN(C(=O)CC4CCN(c5ccc(C6CCC(=O)NC6=O)cc5)CC4)CC3)CC2)ccc1Nc1ncc(Cl)c(Nc2ccccc2P(C)(C)=O)n1 (stereo not shown) [Example 107, 3-(4-(4-(2-(4-(1-(4-((5-chloro-4-((2-(dimethylphosphoryl)phenyl)amino)pyrimidin-2-yl)amino)-3-methoxyphenyl)piperidin-4-yl)piperazin-1-yl)-2-oxoethyl)piperidin-1-yl)phenyl)piperidine-2,6-dione]
DC50: 17.2 nM
Dmax: 79.3%

COc1cc(N2CCC(N3CCN(CCc4ccc(NC5CCC(=O)NC5=O)cc4)CC3)CC2)ccc1Nc1ncc(Cl)c(Nc2ccccc2P(C)(C)=O)n1 (stereo not shown) [Example 108]
DC50: 16.6 nM
Dmax: 82.2%

COc1cc(N2CCC(N3CCN(CCCOc4ccc(OC5CCC(=O)NC5=O)cc4)CC3)CC2)ccc1Nc1ncc(Cl)c(Nc2ccccc2P(C)(C)=O)n1 (stereo not shown) [Example 109, 3-(4-(3-(4-(1-(4-((5-chloro-4-((2-(dimethylphosphoryl)phenyl)amino)pyrimidin-2-yl)amino)-3-methoxyphenyl)piperidin-4-yl)piperazin-1-yl)propoxy)phenoxy)piperidine-2,6-dione]
DC50: 189 nM
Dmax: 79.6%

COc1cc(N2CCC(N3CCN(CC4CCC(c5ccc(N6CCC(=O)NC6=O)cc5)CC4)CC3)CC2)ccc1Nc1ncc(Cl)c(Nc2ccccc2P(C)(C)=O)n1 (stereo not shown) [Example 110, 1-(4-(4-((4-(1-(4-((5-chloro-4-((2-(dimethylphosphoryl)phenyl)amino)pyrimidin-2-yl)amino)-3-methoxyphenyl)piperidin-4-yl)piperazin-1-yl)methyl)cyclohexyl)phenyl)dihydropyrimidine-2,4(1H,3H)-dione]
DC50: 49.6 nM
Dmax: 81.2%

COc1cc(N2CCC(N3CCN(CCc4ccc(CN5CCC(=O)NC5=O)cc4)CC3)CC2)ccc1Nc1ncc(Cl)c(Nc2ccccc2P(C)(C)=O)n1 [Example 111, 1-(4-(2-(4-(1-(4-((5-chloro-4-((2-(dimethylphosphoryl)phenyl)amino)pyrimidin-2-yl)amino)-3-methoxyphenyl)piperidin-4-yl)piperazin-1-yl)ethyl)benzyl)dihydropyrimidine-2,4(1H,3H)-dione]
DC50: 112 nM
Dmax: 81.1%

COc1cc(N2CCC(N3CCN(C(=O)CCCCN4CCN(c5ccc6c(c5)C(=O)N(C5CCC(=O)NC5=O)C6=O)CC4)CC3)CC2)ccc1Nc1ncc(Cl)c(Nc2ccccc2P(C)(C)=O)n1 (stereo not shown) [Example 114, 5-(4-(5-(4-(1-(4-((5-chloro-4-((2-(dimethylphosphoryl)phenyl)amino)pyrimidin-2-yl)amino)-3-methoxyphenyl)piperidin-4-yl)piperazin-1-yl)-5-oxopentyl)piperazin-1-yl)-2-(2,6-dioxopiperidin-3-yl)isoindoline-1,3-dione]
DC50: 8.23 nM
Dmax: 82.4%

COc1cc(N2CCC(N3CCN(CCC4CCN(c5ccc(C6CCC(=O)NC6=O)cc5)CC4)CC3)CC2)ccc1Nc1ncc(Cl)c(Nc2ccccc2N(C)S(C)(=O)=O)n1 (stereo not shown) [Example 121, N-(2-((5-chloro-2-((4-(4-(4-(2-(1-(4-(2,6-dioxopiperidin-3-yl)phenyl)piperidin-4-yl)ethyl)piperazin-1-yl)piperidin-1-yl)-2-methoxyphenyl)amino)pyrimidin-4-yl)amino)phenyl)-N-methylmethanesulfonamide]
DC50: 19 nM
Dmax: 80.8%

COc1cc(N2CCC(N3CCN(C(=O)CC4CCN(c5ccc(C6CCC(=O)NC6=O)cc5)CC4)CC3)CC2)ccc1Nc1ncc(Cl)c(Nc2ccccc2N(C)S(C)(=O)=O)n1 (stereo not shown) [Example 122, N-(2-((5-chloro-2-((4-(4-(4-(2-(1-(4-(2,6-dioxopiperidin-3-yl)phenyl)piperidin-4-yl)acetyl)piperazin-1-yl)piperidin-1-yl)-2-methoxyphenyl)amino)pyrimidin-4-yl)amino)phenyl)-N-methylmethanesulfonamide]
DC50: 6.37 nM
Dmax: 69.2%

COc1cc(N2CCC(N3CCN(CCc4ccc(N5CCC(=O)NC5=O)cc4)CC3)CC2)ccc1Nc1ncc(Cl)c(Nc2ccccc2N(C)S(C)(=O)=O)n1 [Example 124, N-(2-((5-chloro-2-((4-(4-(4-(4-(2,4-dioxotetrahydropyrimidin-1(2H)-yl)phenethyl)piperazin-1-yl)piperidin-1-yl)-2-methoxyphenyl)amino)pyrimidin-4-yl)amino)phenyl)-N-methylmethanesulfonamide]
DC50: 81.6 nM
Dmax: 80.8%

COc1cc(N2CCC(N3CCN(C(=O)CN4CCN(c5ccc6c(c5)C(=O)N(C5CCC(=O)NC5=O)C6)CC4)CC3)CC2)ccc1Nc1ncc(Cl)c(Nc2ccccc2N(C)S(C)(=O)=O)n1 (stereo not shown) [Example 130, N-(2-((5-chloro-2-((4-(4-(4-(2-(4-(2-(2,6-dioxopiperidin-3-yl)-3-oxoisoindolin-5-yl)piperazin-1-yl)acetyl)piperazin-1-yl)piperidin-1-yl)-2-methoxyphenyl)amino)pyrimidin-4-yl)amino)phenyl)-N-methylmethanesulfonamide]
DC50: 45.8 nM
Dmax: 80.8%

COc1cc(N2CCC(NCCCCCc3ccc(C4CCC(=O)NC4=O)cc3)CC2)ccc1Nc1ncc(Cl)c(Nc2ccccc2N(C)S(C)(=O)=O)n1 (stereo not shown) [Example 131, N-(2-((5-chloro-2-((4-(4-((5-(4-(2,6-dioxopiperidin-3-yl)phenyl)pentyl)amino)piperidin-1-yl)-2-methoxyphenyl)amino)pyrimidin-4-yl)amino)phenyl)-N-methylmethanesulfonamide]
DC50: 68.3 nM
Dmax: 80.1%

COc1cc(N2CCC(NCCCCCCCc3ccc(C4CCC(=O)NC4=O)cc3)CC2)ccc1Nc1ncc(Cl)c(Nc2ccccc2N(C)S(C)(=O)=O)n1 (stereo not shown) [Example 132, N-(2-((5-chloro-2-((4-(4-((7-(4-(2,6-dioxopiperidin-3-yl)phenyl)heptyl)amino)piperidin-1-yl)-2-methoxyphenyl)amino)pyrimidin-4-yl)amino)phenyl)-N-methylmethanesulfonamide]
DC50: 34 nM
Dmax: 80%

COc1cc(N2CCN(CCc3ccc(C4CCC(=O)NC4=O)cc3)CC2)ccc1Nc1ncc(Cl)c(Nc2ccccc2N(C)S(C)(=O)=O)n1 (stereo not shown) [Example 133, N-(2-((5-chloro-2-((4-(4-(4-(2,6-dioxopiperidin-3-yl)phenethyl)piperazin-1-yl)-2-methoxyphenyl)amino)pyrimidin-4-yl)amino)phenyl)-N-methylmethanesulfonamide]
DC50: 39.1 nM
Dmax: 78.2%

CN(c1ccccc1Nc1nc(Nc2ccc(N3CC4(CN(CCc5ccc(C6CCC(=O)NC6=O)cc5)C4)C3)c(F)c2)ncc1Cl)S(C)(=O)=O (stereo not shown) [Example 134, N-(2-((5-chloro-2-((4-(6-(4-(2,6-dioxopiperidin-3-yl)phenethyl)-2,6-diazaspiro[3.3]heptan-2-yl)-3-fluorophenyl)amino)pyrimidin-4-yl)amino)phenyl)-N-methylmethanesulfonamide]
DC50: 38 nM
Dmax: 77.6%

CN(c1ccccc1Nc1nc(Nc2ccc(N3CC4(CN(CCc5ccc(NC6CCC(=O)NC6=O)cc5)C4)C3)c(F)c2)ncc1Cl)S(C)(=O)=O (stereo not shown) [Example 136, N-(2-((5-chloro-2-((4-(6-(4-((2,6-dioxopiperidin-3-yl)amino)phenethyl)-2,6-diazaspiro[3.3]heptan-2-yl)-3-fluorophenyl)amino)pyrimidin-4-yl)amino)phenyl)-N-methylmethanesulfonamide]
DC50: 68.5 nM
Dmax: 79.5%

CN(c1ccccc1Nc1nc(Nc2ccc(N3CC4(CN(C(=O)C5CCN(CC6CCN(c7ccc8c(c7)C(=O)N(C7CCC(=O)NC7=O)C8=O)CC6)CC5)C4)C3)c(F)c2)ncc1Cl)S(C)(=O)=O (stereo not shown) [Example 137, N-(2-((5-chloro-2-((4-(6-(1-((1-(2-(2,6-dioxopiperidin-3-yl)-1,3-dioxoisoindolin-5-yl)piperidin-4-yl)methyl)piperidine-4-carbonyl)-2,6-diazaspiro[3.3]heptan-2-yl)-3-fluorophenyl)amino)pyrimidin-4-yl)amino)phenyl)-N-methylmethanesulfonamide]
DC50: 9.41 nM
Dmax: 92.5%

COc1cc(N2CCC(N3CCN(CCC4CCN(c5ccc(N6CCC(=O)NC6=O)cc5)CC4)CC3)CC2)ccc1Nc1ncc(Cl)c(Nc2ccccc2NS(C)(=O)=O)n1 [Example 139, N-(2-((5-chloro-2-((4-(4-(4-(2-(1-(4-(2,4-dioxotetrahydropyrimidin-1(2H)-yl)phenyl)piperidin-4-yl)ethyl)piperazin-1-yl)piperidin-1-yl)-2-methoxyphenyl)amino)pyrimidin-4-yl)amino)phenyl) methanesulfonamide]
DC50: 53.6 nM
Dmax: 75.7%

— patent US20230265116A1, “DEGRADATION OF (EGFR) BY CONJUGATION OF EGFR INHIBITORS WITH E3 LIGASE LIGAND AND METHODS OF USE” (BEIGENE, LTD., priority 2020, published 2023)
